Assay [1] deals with T1, wild-type human 5-HT3A receptors (Homo sapiens, UniProt P46098).
T1 construct: expressed in transfected cells; host or cells: Xenopus laevis oocytes
T1 sequence (P46098 1-484 isoform P46098-4): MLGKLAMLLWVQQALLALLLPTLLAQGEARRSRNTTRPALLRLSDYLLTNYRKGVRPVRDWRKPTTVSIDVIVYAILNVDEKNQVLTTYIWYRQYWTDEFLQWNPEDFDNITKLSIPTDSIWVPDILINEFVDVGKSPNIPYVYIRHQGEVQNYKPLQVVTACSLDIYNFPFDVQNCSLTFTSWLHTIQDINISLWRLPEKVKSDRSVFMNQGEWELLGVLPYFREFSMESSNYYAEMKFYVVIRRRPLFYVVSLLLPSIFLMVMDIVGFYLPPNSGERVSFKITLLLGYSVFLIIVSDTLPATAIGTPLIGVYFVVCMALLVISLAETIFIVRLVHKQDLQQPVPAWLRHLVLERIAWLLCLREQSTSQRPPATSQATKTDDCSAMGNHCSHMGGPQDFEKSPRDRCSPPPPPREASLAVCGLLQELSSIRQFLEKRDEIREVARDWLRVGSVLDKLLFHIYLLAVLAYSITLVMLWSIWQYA
Kind of assay: Two electrode voltage clamp in Xenopus oocytes, agonist and modulator responses. In kind it is cell-based. Conditions: Xenopus oocytes; read-out: Maximum activation. A general note: Two-electrode voltage clamp is typically applied to oocytes expressing channels or transporters.

The target of assay [2] is T2, Chimera 8 (Homo sapiens, UniProt P46098, I238M/V237T).
T2 construct: expressed in transfected cells; host or cells: Xenopus laevis oocytes
Kind of assay: Two electrode voltage clamp in Xenopus oocytes, reverse 5HT3-α7 chimera. It counts as cell-based. The protocol:
Xenopus laevis oocytes were prepared and injected as previously described {Eisele, 1993 #2; Krause, 1998 #4}. Briefly, ovaries were harvested from female Xenopus. Isolation of the oocytes was obtained by enzymatic dissociation using collagenase type I in a medium deprived of calcium and by gentle mechanical agitation for approximately 3 hours. Oocytes stage 5-6 were manually selected on the next day and injected into the nucleus with 2 ng plasmid containing the cDNA of interest. Oocytes were then placed in a 96 well microtiter plate in Barth solution and used for electrophysiological investigation two to five days later. All recordings were performed at 18° C. and cells were superfused with OR2 medium containing in mM:NaCl 82.5, KCI 2.5, HEPES 5, CaCl2.2H2O 2.5, MgCl2.6H2O 1, pH 7.4, and 0.5 μM atropine was added to prevent possible activation of endogenous muscarinic receptors. Unless indicated cells were held at −100 mV using a two electrode voltage clamp apparatus connected to a Geneclamp amplifier (Molecular Devices). Data were captured and analyzed using data acquisition and analysis software. […] Values indicated throughout the text are given with their respective standard error of the mean (SEM). For statistical analysis we used the unpaired, two-tailed Student's T test using either excel (Microsoft) or Matlab (Mathworks Inc.).
To examine the putative role of the transmembrane domains, a reverse chimera comprising the 5-HT3 ligand binding domain and the transmembrane domain of α7 was designed and constructed. […] See FIGS. 13A and B. To best evaluate a putative allosteric modulation, currents evoked by low agonist concentration were also investigated, but exposure to either NS-1738 or PNU-120596 caused no detectable modification of the response amplitude or time course. […] Data not shown. […] The cartoon above the traces in FIG. 13 illustrates the schematic structure of a single subunit inserted into the membrane. The gray line corresponds to the extracellular 5HT3 receptor sequence, whereas the dark line indicates the α7 segments. Despite the low yield of expression, significant and reproducible currents were evoked by brief exposure to 5-HT.

Assay [3] addresses T3, wild-type α7 nicotinic acetylcholine receptor (Homo sapiens, UniProt P36544).
T3 construct: expressed in transfected cells; host or cells: Xenopus laevis oocytes
The assay can be described thus: Two electrode voltage clamp in Xenopus oocytes, agonist and modulator responses. It counts as cell-based.

For assay [4], the target named is T4, Chimera 1 (Homo sapiens, UniProt P36544, M226I/T225V). Kind of assay: Membrane potential imaging (FLIPR-FMP) in HEK-293 cells. It counts as cell-based. Also on record: expressed in transfected cells.
Assay [5] concerns the target T5, Chimera 2 (Homo sapiens, UniProt P36544, M226I/T225V). Described as above. It counts as cell-based. On the set-up: expressed in transfected cells.
Assay [6] deals with T4, Chimera 1. Kind of assay: Two electrode voltage clamp in Xenopus oocytes (POETs), agonist and modulator responses. On the set-up: expressed in transfected cells; host or cells: Xenopus laevis oocytes (transient, A1). In kind it is cell-based.
Assay [7] deals with T5, Chimera 2. Described as above. Also on record: expressed in transfected cells; host or cells: Xenopus laevis oocytes (transient, A2). In kind it is cell-based.
In assay [8] the target is T6, rat brain α7* nicotinic acetylcholine receptors (Rattus norvegicus, UniProt Q05941).
T6 construct: expressed both as a native (rat cortex) or α7/5-HT3 chimeric receptor; from tissue; host or cells: rat brain / rat cortex homogenates
The assay can be described thus: [3H]A-585539 radioligand binding, rat brain homogenates.

The target of assay [9] is T5, Chimera 2. The assay can be described thus: [3H]A-585539 radioligand binding, HEK-293 membranes/homogenates. On the set-up: expressed in transfected cells. Conditions: increasing concentrations.
Where [10] appears, read: read-out: Maximum efficacy (mean±S.E.M.), agonist-evoked current.
Setting [11] is: HEK293, read-out: Maximum efficacy (mean±S.E.M.), membrane potential imaging, HEK-293 cells.
[12] abbreviates: read-out: Agonist potency, membrane potential imaging: EC50 (95% C.I.), HEK-293 cells.
Where [13] appears, read: HEK293, read-out: Agonist maximum efficacy, control (no modulator).
Setting [14] is: HEK293, read-out: Agonist maximum efficacy, in the presence of 10 μM genistein.
[15] abbreviates: HEK293, read-out: Agonist maximum efficacy, in the presence of 1 mM 5-HI.
The mark [16] stands for this setting: read-out: Agonist concentration-response EC50, control (no modulator).
[17] abbreviates: read-out: Agonist concentration-response EC50, in the presence of 10 μM genistein.
[18] abbreviates: read-out: Agonist concentration-response EC50, in the presence of 1 mM 5-HI.

These results are taken from patent US8759504B2, “Cholinergic/serotoninergic receptor and uses thereof” (AbbVie Inc., priority 2007, dated 2014).

T4 sequence (P36544 with tags, fused parts or gaps T225V/M226I): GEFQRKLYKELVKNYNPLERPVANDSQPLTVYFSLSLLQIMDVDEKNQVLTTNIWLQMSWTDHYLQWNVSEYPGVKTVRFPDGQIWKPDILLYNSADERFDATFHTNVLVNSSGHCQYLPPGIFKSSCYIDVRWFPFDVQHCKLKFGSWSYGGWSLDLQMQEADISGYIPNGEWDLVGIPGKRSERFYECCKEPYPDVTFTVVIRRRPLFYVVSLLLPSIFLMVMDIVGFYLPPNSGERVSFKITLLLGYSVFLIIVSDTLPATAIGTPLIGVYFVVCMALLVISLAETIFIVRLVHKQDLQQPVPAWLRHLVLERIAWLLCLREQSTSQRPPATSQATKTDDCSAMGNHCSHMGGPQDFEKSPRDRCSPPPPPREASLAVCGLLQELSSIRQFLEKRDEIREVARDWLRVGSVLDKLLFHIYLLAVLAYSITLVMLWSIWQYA
T3 sequence (P36544 23-502): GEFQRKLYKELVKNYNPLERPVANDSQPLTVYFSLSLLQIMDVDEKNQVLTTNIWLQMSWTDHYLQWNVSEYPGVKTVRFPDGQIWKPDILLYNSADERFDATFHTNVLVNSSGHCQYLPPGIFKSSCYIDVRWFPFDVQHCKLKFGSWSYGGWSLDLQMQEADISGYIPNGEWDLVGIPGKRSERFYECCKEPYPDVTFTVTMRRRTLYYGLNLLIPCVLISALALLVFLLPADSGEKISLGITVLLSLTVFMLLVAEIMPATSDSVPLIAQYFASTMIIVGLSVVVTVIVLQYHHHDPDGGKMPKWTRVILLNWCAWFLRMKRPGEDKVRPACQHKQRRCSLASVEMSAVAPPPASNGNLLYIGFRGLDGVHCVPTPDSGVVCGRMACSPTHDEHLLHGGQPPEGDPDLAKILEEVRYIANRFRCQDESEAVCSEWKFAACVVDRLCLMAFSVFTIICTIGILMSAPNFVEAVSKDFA
T5 sequence (P36544 with tags, fused parts or gaps T225V/M226I): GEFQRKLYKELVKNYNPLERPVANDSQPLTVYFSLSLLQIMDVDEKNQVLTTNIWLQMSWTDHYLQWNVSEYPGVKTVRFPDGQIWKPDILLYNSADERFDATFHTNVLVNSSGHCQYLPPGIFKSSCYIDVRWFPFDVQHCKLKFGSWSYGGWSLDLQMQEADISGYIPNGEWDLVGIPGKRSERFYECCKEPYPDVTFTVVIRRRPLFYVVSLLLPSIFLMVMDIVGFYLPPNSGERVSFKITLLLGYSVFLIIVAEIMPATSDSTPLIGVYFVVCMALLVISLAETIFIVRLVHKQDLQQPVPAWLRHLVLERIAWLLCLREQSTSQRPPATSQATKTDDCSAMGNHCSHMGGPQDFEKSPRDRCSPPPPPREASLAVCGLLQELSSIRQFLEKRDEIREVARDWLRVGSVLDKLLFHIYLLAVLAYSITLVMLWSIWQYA
T2 sequence (P46098 with tags, fused parts or gaps isoform P46098-4 V243T/I244M): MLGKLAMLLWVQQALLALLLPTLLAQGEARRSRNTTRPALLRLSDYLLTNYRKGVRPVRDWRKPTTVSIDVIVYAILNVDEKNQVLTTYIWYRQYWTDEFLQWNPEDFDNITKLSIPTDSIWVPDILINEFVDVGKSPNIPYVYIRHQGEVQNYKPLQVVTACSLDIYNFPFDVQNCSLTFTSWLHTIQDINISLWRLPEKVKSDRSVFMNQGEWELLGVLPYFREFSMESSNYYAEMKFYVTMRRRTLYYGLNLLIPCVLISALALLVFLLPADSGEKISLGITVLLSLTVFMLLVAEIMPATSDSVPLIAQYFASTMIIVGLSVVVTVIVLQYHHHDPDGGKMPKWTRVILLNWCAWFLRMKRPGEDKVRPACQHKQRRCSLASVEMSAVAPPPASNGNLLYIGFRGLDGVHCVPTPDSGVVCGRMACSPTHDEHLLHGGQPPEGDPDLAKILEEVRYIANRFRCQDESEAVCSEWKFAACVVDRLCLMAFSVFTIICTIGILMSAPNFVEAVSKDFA
T6 sequence (Q05941 23-502): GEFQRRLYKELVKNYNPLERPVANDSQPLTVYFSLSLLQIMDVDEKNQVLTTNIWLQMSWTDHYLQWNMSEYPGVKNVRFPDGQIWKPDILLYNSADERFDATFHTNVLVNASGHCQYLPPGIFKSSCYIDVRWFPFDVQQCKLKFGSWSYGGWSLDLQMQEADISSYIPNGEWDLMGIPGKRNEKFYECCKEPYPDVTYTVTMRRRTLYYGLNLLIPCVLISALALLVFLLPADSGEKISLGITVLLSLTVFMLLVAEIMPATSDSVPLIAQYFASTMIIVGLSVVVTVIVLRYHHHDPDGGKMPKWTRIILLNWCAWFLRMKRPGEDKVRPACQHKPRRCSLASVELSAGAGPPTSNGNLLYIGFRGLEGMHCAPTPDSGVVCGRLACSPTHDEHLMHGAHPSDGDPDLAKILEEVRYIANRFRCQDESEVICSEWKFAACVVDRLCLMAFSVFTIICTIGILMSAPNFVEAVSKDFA

On to `NCCc1c[nH]c2ccc(O)cc12` [5-HT, 5-hydroxytryptamine], for which, in assay [1], the Emax worked out at 100%. For the same compound, in [2], the “Agonist-evoked current” value was “significant inward currents”.
For `C[N+](C)(C)CCO` [Choline, choline], the EC50 in assay [3] (Agonist potency, two electrode voltage clamp, Xenopus oocyte: EC50 (95% C.I.), peak current amplitude) came out at 1120 µM; in [4] (setting [12]) it was 285 µM; in assay [5] (setting [12]), 37.8 µM; in [6] (read-out: Agonist potency, two electrode voltage clamp, Xenopus oocyte: EC50 (95% C.I.), peak current amplitude), 1510 µM; in [7] (read-out: Agonist potency, two electrode voltage clamp, Xenopus oocyte: EC50 (95% C.I.)) it was 214 µM. In addition, the Emax stood at 81 ± 4% in [3] (setting [10]); 132 ± 9% in [4] (setting [11]); 101 ± 6% in assay [5] (setting [11]); 91 ± 7% in assay [6] (setting [10]); 78 ± 4% in assay [7] (setting [10]). Also, the “FLIPR-FMP pEC50 ± SEM” value in [4] (HEK-293 cells) was 2.9 ± 0.06; in assay [5] (HEK-293 cells) it was 4.4 ± 0.04. The “Electrophysiology (POETs) pEC50 ± SEM” value in assay [6] (Xenopus oocytes) worked out at 2.9 ± 0.06; in assay [7], 3.7 ± 0.08.
`CC[C@H](C)[C@H]1O[C@]2(CC[C@@H]1C)C[C@@H]1C[C@@H](C/C=C(\C)[C@@H](O[C@H]3C[C@H](OC)[C@@H](O[C@H]4C[C@H](OC)[C@@H](O)[C@H](C)O4)[C@H](C)O3)[C@@H](C)/C=C/C=C3\CO[C@@H]4[C@H](O)C(C)=C[C@@H](C(=O)O1)[C@]34O)O2` [IVM, ivermectin]: the “ng of ACh curve after modulator” value in assay [3] (30 μM IVM) is listed as 1.4 ± 0.16; in [6] (30 μM IVM), 1.8 ± 0.05; in assay [7] (30 μM IVM), 1.1 ± 0.12. Also, the “Effect of modulator on ACh-evoked current (words)” value in assay [3] (Xenopus oocytes) is “substantial increase in the amplitude of the subsequent ACh-evoked current”; in assay [6] (Xenopus oocytes) it was “absence of effects”.
Consider `c1ccc(-c2nnc(N3CCN4CCC3CC4)o2)cc1` [NS6784, 2-(1,4-diazabicyclo[3.2.2]nonan-4-yl)-5-phenyl-1,3,4-oxadiazole], for which the results for the Emax in [4] (setting [11]) and in assay [5] (setting [11]) were 100% and 107 ± 5%, respectively. The entries for the “FLIPR-FMP pEC50 ± SEM” value in [4] (HEK-293 cells) and in assay [5] (HEK-293 cells) were 6.8 ± 0.10 and 7.1 ± 0.04, respectively. The figures for the EC50 in assay [4] (setting [12]) and in assay [5] (setting [12]) were 0.133 µM and 0.072 µM, respectively.
As for `O=C(N[C@H]1CN2CCC1CC2)c1ccc(Cl)cc1` [PNU-282987], the Emax in assay [4] (setting [13]) amounted to 98 ± 2%; in assay [4] (setting [14]) it was 87 ± 3%; in [4] (setting [15]) it was 157 ± 13%; in assay [4] (setting [11]), 107 ± 9%; in assay [5] (setting [13]) it was 100 ± 0.01%; in assay [5] (setting [14]), 207 ± 21%. The Emax stood at 156 ± 4% in assay [5] (setting [15]) and 99 ± 2% in assay [5] (setting [11]). The “FLIPR-FMP pEC50 ± SEM” value in [4] (HEK-293 cells) was 6.8 ± 0.07; in [5] (HEK-293 cells) it was 7.0 ± 0.04. The EC50 in assay [4] (setting [16]) is 0.343 µM; in [4] (setting [17]) it was 0.527 µM; in assay [4] (setting [18]) it was 0.145 µM; in assay [4] (setting [12]) it was 0.204 µM; in assay [5] (setting [16]), 0.075 µM; in assay [5] (setting [17]) it was 0.072 µM. In addition, the values for the EC50 in assay [5] (setting [18]) and in assay [5] (setting [12]) were 0.037 µM and 0.053 µM, respectively.
Regarding `Br.CO[C@H]1CC=C2CCN3CCC4=C(CC(=O)OC4)[C@]23C1` [dihydro-β-erythroidine hydrobromide], the “Effect on the inward current evoked by NS-1738 alone” value in [7] (Xenopus oocytes, data not shown) is “inhibited the inward current observed during the NS-1738 exposure”.
In the case of `CCN1C[C@]2(COC(=O)c3ccccc3N3C(=O)C[C@H](C)C3=O)CC[C@H](OC)[C@@]34[C@@H]5C[C@H]6[C@H](OC)[C@@H]5[C@](O)(C[C@@H]6OC)[C@@](O)([C@@H](OC)[C@H]23)[C@@H]14` [methyllycaconitine], the “Competition / displacement of [3H]A-585539 binding” value in assay [8] and in [9] was “competed with the binding” throughout.
